From patent US9035059B2, “Nitrogen-containing condensed heterocyclic compound” (TAISHO PHARMACEUTICAL CO., LTD., priority 2011, dated 2015)

What follows are compounds tested against human MGAT2 (Homo sapiens (Human), UniProt Q3SYC2) (assay: Test Example 1: Test of MGAT2 inhibitory action (human MGAT2 enzyme fraction from Sf9 cells, free CoA detected by CPM fluorescence)). Settings: human MGAT2 enzyme fraction expressed in Sf9 insect cells, 0.5 μg/ml, 2-monooleoyl glycerol 0.78 μM, oleoyl-CoA 5.3 μM, room temperature 20 min, listed as 10-7, read-out: Activity Value [nM] (IC50, concentration at which 50% of produced free CoA was inhibited).
Format: biochemical
Description: The MGAT2 inhibitory action of the inventive compound was measured by the methods described in Test Examples as shown below. The MGAT enzyme activity was measured based on the amount of an indicator, free Coenzyme A (CoA) which is generated by the reaction shown below, using a sulfhydryl reactive pigment (7-diethylamino-3-(4-maleimidophenyl)-4-methylcoumarin; hereinafter, sometimes abbreviated as CPM).
A test for MGAT2 inhibitory action of test compounds was conducted in accordance with a partially modified version of the method described in John F. Lockwood et al., Am. J. Physiol. Endocrinol. Metab., 2003, 285, E927.
Bac-to-Bac Baculovirus Expression System (Life Technologies Japan) was used to express human MGAT2 in insect cells (Sf9) (Life Technologies Japan). These cells were sonicated and centrifuged at 100,000 g×1 hr to give a precipitate. The precipitate was used as a human MGAT2 enzyme fraction in this assay.
This test was conducted using a black flat-bottom 96-well plate (Corning). A buffer solution with final concentrations of 5 mM magnesium chloride, 100 mM sucrose and 100 mM Tris-HCl (pH=7.5) was prepared and test compounds prepared in various concentrations using dimethyl sulfoxide were added thereto to give a final dimethyl sulfoxide concentration of 1%. The MGAT2 enzyme fraction was added thereto to give a final concentration of 0.5 μg/ml and phosphatidylcholine, 2-monooleoyl glycerol and oleoyl-CoA were added thereto to give final concentrations of 7.5 μM, 0.78 μM and 5.3 μM, respectively, before starting a reaction. The reaction was performed at room temperature for 20 min.
After 20 min, a CPM-containing solution was added thereto to give a final concentration of 5 μM before stopping the MGAT reaction. After 1 hr, a fluorescence detector (Infinite 200 from Tecan Japan) was used to measure the CPM fluorescence value of each well (excitation 380 nm, emission 460 nm).

Sequence of human MGAT2 (Q3SYC2 whole entry): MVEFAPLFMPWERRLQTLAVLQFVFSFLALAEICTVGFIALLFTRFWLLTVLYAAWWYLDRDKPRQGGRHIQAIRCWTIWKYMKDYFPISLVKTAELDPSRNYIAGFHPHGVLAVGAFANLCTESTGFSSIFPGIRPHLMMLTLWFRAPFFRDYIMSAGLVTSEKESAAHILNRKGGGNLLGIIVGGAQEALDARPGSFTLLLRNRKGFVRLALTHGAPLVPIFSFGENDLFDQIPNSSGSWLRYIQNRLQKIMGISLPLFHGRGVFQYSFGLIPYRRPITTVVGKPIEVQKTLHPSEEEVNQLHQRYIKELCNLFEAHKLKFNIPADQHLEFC

| Structure (SMILES) | IC50 [nM] |
| --- | --- |
| CCCCCCCc1ccc(NS(=O)(=O)c2ccc3c(c2)CCN(C(C)Cc2ccc(C(C)(C)C)cc2)C3)c(F)c1 (single isomer, unassigned) [Working Example 10-7] | 31 |

Same assay, conditions: human MGAT2 enzyme fraction expressed in Sf9 insect cells, 0.5 μg/ml, 2-monooleoyl glycerol 0.78 μM, oleoyl-CoA 5.3 μM, room temperature 20 min, listed as 10-8, read-out: Activity Value [nM] (IC50, concentration at which 50% of produced free CoA was inhibited)

| Structure (SMILES) | IC50 [nM] |
| --- | --- |
| CCCCCCCc1ccc(NS(=O)(=O)c2ccc3c(c2)CCN(C(C)Cc2ccc(C(C)(C)C)cc2)C3)c(F)c1 (single isomer, unassigned) [Working Example 10-8] | 62 |

Same assay, conditions: human MGAT2 enzyme fraction expressed in Sf9 insect cells, 0.5 μg/ml, 2-monooleoyl glycerol 0.78 μM, oleoyl-CoA 5.3 μM, room temperature 20 min, read-out: Activity Value [nM] (IC50, concentration at which 50% of produced free CoA was inhibited)

| Structure (SMILES) | IC50 [nM] |
| --- | --- |
| CC(C)(C)c1ccc(CCN2CCc3cc(S(=O)(=O)Nc4ccc(CCCCCc5ccccc5)cc4F)ccc3C2)cc1 [Working Example 6-28] | 53 |
| CC(C)(C)c1ccc(NC(=O)N2Cc3ccc(S(=O)(=O)Nc4ccc(OCCOc5cccc(C(F)(F)F)c5)cc4F)cc3C2)cc1 [18-21] | 59 |
| CC(C)(C)c1ccc(CN2CCc3cc(S(=O)(=O)Nc4ccc(OCCCc5ccccc5)cc4F)ccc3C2)cn1 [Working Example 6-26] | 218 |
| CC(C)(C)c1ccc(CCN2CCc3cc(S(=O)(=O)Nc4ccc(OCCCCc5ccccc5)cc4F)ccc3C2)cc1 [Working Example 8-1, 2-[2-(4-tert-Butylphenyl)ethyl]-N-[2-fluoro-4-(4-phenylbutoxy)phenyl]-1,2,3,4-tetrahydroisoquinoline-6-sulfonamide] | 70 |
| CC(C)(C)c1ccc(NC(=O)N2Cc3ccc(S(=O)(=O)Nc4ccc(OCCc5ccccc5)cc4F)cc3C2)cc1 [18-14] | 127 |
| CC(C)(C)c1ccc(CCN2CCc3cc(S(=O)(=O)Nc4ccc(CCCC5CCCCC5)cc4F)ccc3C2)cc1 [Working Example 6-19] | 62 |
| CC(C)(C)c1ccc(NC(=O)N2CCc3cc(S(=O)(=O)Nc4ccc(OCCC5CCOCC5)cc4F)ccc3C2)cc1 [14-35] | 178 |
| CC(C)(C)c1ccc(CCN2CCc3cc(S(=O)(=O)Nc4ccc(OCCC5CCCCC5)cc4F)ccc3C2)cc1 [Working Example 5-1, 2-[2-(4-tert-Butylphenyl)ethyl]-N-[4-(2-cyclohexylethoxy)-2-fluorophenyl]-1,2,3,4-tetrahydroisoquinoline-6-sulfonamide] | 76 |
| CC(C)(C)c1ccc(NC(=O)N2Cc3ccc(S(=O)(=O)Nc4ccc(OCCOc5ccc(F)cc5)cc4F)cc3C2)cc1 [18-19] | 125 |
| CCCCCCOc1ccc(NS(=O)(=O)c2ccc3c(c2)CCN(C(=O)Nc2ccc(C(C)(C)C)cc2)C3)c(F)c1 [14-4] | 98 |
| CC(C)(C)[C@H]1CC[C@@H](C(=O)N2CCc3cc(S(=O)(=O)Nc4ccc(CCCC5CCCC5)cc4F)ccc3C2)CC1 [Working Example 1-7] | 292 |
| CCCCCCOc1ccc(NS(=O)(=O)c2ccc3c(c2)CCN(CCc2ncc(C(C)(C)C)cn2)C3)c(F)c1 [Working Example 9-21] | 164 |
| CC(C)(C)c1ccc(CCN2CCc3cc(S(=O)(=O)Nc4ccc(OCCCC5CCCCC5)cc4F)ccc3C2)cc1 [17-6] | 39 |
| CC(c1ccc(C(C)(C)C)nc1)N1CCc2cc(S(=O)(=O)Nc3ccc(CCCC4CCCC4)cc3F)ccc2C1 (stereo not shown) [23-1, 2-[1-(6-tert-Butylpyridin-3-yl)ethyl]-N-[4-(3-cyclopentylpropyl)-2-fluorophenyl]-1,2,3,4-tetrahydroisoquinoline-6-sulfonamide] | 13 |
| CC(c1ccc(C(C)(C)C)nc1)N1CCc2cc(S(=O)(=O)Nc3ccc(OCCCc4ccccc4)cc3F)ccc2C1 (stereo not shown) [Working Example 11-2] | 121 |
| CCCCCCOc1ccc(NS(=O)(=O)c2ccc3c(c2)CCN(CCc2ccc(C(C)(C)CO)cc2)C3)c(F)c1 [Working Example 6-30] | 214 |
| CC(C)(C)c1ccc(NC(=O)N2Cc3ccc(S(=O)(=O)Nc4ccc(OCCC5CC5)cc4F)cc3C2)cc1 [18-31] | 266 |
| CCC(c1ccc(C(C)(C)C)cc1)N1CCc2cc(S(=O)(=O)Nc3ccc(OCCCc4ccccc4)cc3F)ccc2C1 (stereo not shown) [Working Example 11-4] | 235 |
| CCCCCCCCOc1ccc(NS(=O)(=O)c2ccc3c(c2)CCN(CCc2ccc(C(C)(C)C)cc2)C3)c(F)c1 [17-2] | 45 |
| CC(c1ccc(C(C)(C)C)nc1)N1CCc2cc(S(=O)(=O)Nc3ccc(OCCCCCc4ccccc4)cc3F)ccc2C1 (stereo not shown) [23-2] | 14 |
